{"source": "patent US12728134B2", "about": "“Liquisolid pharmaceutical formulation and process for manufacturing” (RHEINISCHE FRIEDRICH-WILHELMS-UNIVERSITÄT BONN, priority 2020, dated 2026)", "key": {"[1]": {"assay": "Solubility of poorly water-soluble APIs in propylene carbonate", "assay_type": "physicochemical", "settings": "organic solvent or mixture, thermodynamic from solid, solvent added in 10 μl steps to about 20 mg, mean of three samples", "procedure": "For a preliminary analysis, 1-2 mg of each compound was weighted in an Eppendorf tube and 1 ml propylene carbonate was added. The mixture was mixed with a metal spatula for 10 min each. The solubility of compounds, which were fully dissolved in the preliminary tests where than further analyzed. About 20 mg of each compound were used and under stirring with a metal spatula propylene carbonate was added in 10 μl steps."}, "physchem": {"assay": "physchem", "settings": "organic solvent or mixture, thermodynamic from solid", "protocol": "Therefore, 1 mg of each compound was weighted in an Eppendorf tube and 1 ml of solvent was added. The mixture was mixed with a metal spatula for 10 min each. […] About 20 mg of each compound were used and under stirring with a metal spatula the solvent was added in 10 μl steps."}, "[2]": {"assay": "Biphasic dissolution test (BiPHa+)", "assay_type": "in vitro ADME", "from_the_text": "This approach was chosen to simulate the gastrointestinal properties to obtain in vivo predictive results.\nThe transition to the organic phase can be understood as absorption of active substances into the blood.\nTo simulate the gastrointestinal properties to obtain in vivo predictive results, the pH-profile, bile salt concentration and gastrointestinal passage time were adjusted in the aqueous phase to mimic human gut conditions. An organic phase of 1-decanol above the aqueous phase imitated the fraction absorbed from the gut. As a test model, the profile of a person without prior food intake was chosen. Therefore, FaSSIF-V2 medium, which represents the bile salts concentration of a fasted human was used. […] To generate an in-situ biorelevant aqueous medium for the fasted state, biorelevant surfactants, namely sodium-taurocholate (3 mM) and lecithin (0.2 mM), were added.\nPrior to the start of the experiments, both phases, 1-decanol and the acidic aqueous phase, were saturated with each other. First, the respective formulation was added (Table 2) to 50 mL HCl (0.1 M), simulating the stomach. During the first 30 min the formulation disintegrated/dispersed in 50 ml of 0.1 M HCl. After 30 min FaSSIF-V2 concentrate (sodium-taurocholate and lecithin) was added simultaneously to the addition of citrate-phosphate buffer (tri-potassium phosphate and potassium citrate) resulting in a first pH-shift from pH 1 to pH 5.5, simulating the duodenum. Thereafter, 50 mL 1-decanol was added. […] The adjusted buffers were titrated by 0.1 M NaOH and 0.1 M HCl (pH 5.5-6.8). The whole dissolution took 4.5 hours.\nFor each compound, the biphasic dissolution test was performed in triplicate. In order to evaluate the liquisolid formulations in terms of their performance, each liquisolid formulation was compared to a respective commercially available formulation.\nThe market formulations (Originator) of the selected APIs were tested additionally to compare the performance against established marked products."}}, "note": "Counter-ions that a name gives are not always drawn.", "data": [{"smiles": "CC(=O)Oc1ccc(C(c2ccc(OC(C)=O)cc2)c2ccccn2)cc1", "note": "[Bisacodyl]", "values": [{"measurement": "solubility", "setting": "[1]", "result": 91.5, "unit": "mg/mL"}]}, {"smiles": "Cc1ccc(-c2cc(C(F)(F)F)nn2-c2ccc(S(N)(=O)=O)cc2)cc1", "note": "[Celecoxib]", "values": [{"measurement": "solubility at 10 min", "setting": "physchem; glycerol", "result": "< 1", "unit": "mg/mL"}, {"measurement": "solubility", "setting": "physchem; polyethylene glycol 400 (PEG 400)", "result": 230, "unit": "mg/mL"}, {"measurement": "solubility", "setting": "physchem; propylene glycol (PG)", "result": 60.3, "unit": "mg/mL"}, {"measurement": "solubility", "setting": "physchem; tetraglycole (TEG)", "result": 244, "unit": "mg/mL"}, {"measurement": "Maximum Partitioned Drug in the Organic Phase", "setting": "[2]; Market Formulation (Originator, Table 11)", "result": 41, "unit": "%"}, {"measurement": "Maximum Partitioned Drug in the Organic Phase", "setting": "[2]; PC Silsol ® Formulation (propylene carbonate on mesoporous silica)", "result": 54, "unit": "%"}, {"measurement": "Maximum Partitioned Drug in the Organic Phase", "setting": "[2]; PEG 400 Silsol ® Formulation", "result": 46, "unit": "%"}, {"measurement": "Maximum Partitioned Drug in the Organic Phase", "setting": "[2]; TEG Silsol ® Formulation", "result": 53, "unit": "%"}, {"measurement": "result of propylene carbonate formulation compared to commercially available market formulation", "setting": "[2]; same in vitro biphasic dissolution conditions, in words", "result": "even better results"}, {"measurement": "solubility", "setting": "[1]", "result": 267, "unit": "mg/mL"}]}, {"smiles": "CN1CCN(C2=Nc3cc(Cl)ccc3Nc3ccccc32)CC1", "note": "[Clozapine]", "values": [{"measurement": "solubility", "setting": "[1]", "result": 4.79, "unit": "mg/mL"}]}, {"smiles": "Cc1ccc(S(=O)(=O)NC(=O)NN2CC3CCCC3C2)cc1", "note": "(stereo not drawn) [Gliclazide]", "values": [{"measurement": "solubility", "setting": "[1]", "result": 32.3, "unit": "mg/mL"}]}, {"smiles": "COC1=CC(=O)C[C@@H](C)[C@]12Oc1c(Cl)c(OC)cc(OC)c1C2=O", "note": "[Griseofulvin]", "values": [{"measurement": "solubility", "setting": "[1]", "result": 16.8, "unit": "mg/mL"}]}, {"smiles": "CN(C)CCCN1c2ccccc2CCc2ccccc21", "note": "[Imipramine hydrochloride]", "values": [{"measurement": "solubility", "setting": "[1]", "result": 167, "unit": "mg/mL"}]}, {"smiles": "COc1ccc2c(c1)c(CC(=O)O)c(C)n2C(=O)c1ccc(Cl)cc1", "note": "[Indomethacin]", "values": [{"measurement": "solubility", "setting": "[1]", "result": 17.2, "unit": "mg/mL"}]}, {"smiles": "COCCOC(=O)C1=C(C)NC(C)=C(C(=O)OC(C)C)C1c1cccc([N+](=O)[O-])c1", "note": "(stereo not drawn) [Nimodipine]", "values": [{"measurement": "solubility at 10 min", "setting": "physchem", "result": "< 1", "unit": "mg/mL"}, {"measurement": "solubility", "setting": "[1]", "result": 144, "unit": "mg/mL"}]}]}
